Laboratory results as given in patent publication US9023862B2, “Medicament for the treatment of endometriosis” (Ferring International Center S.A., priority 2007, dated 2015).

How the values were obtained:
endometriotic lesions [1] = experiment: Ki-67 immunocytochemistry, proliferative activity of the implants; format: in vivo, mice; conditions: both low and high dose groups vs control; P<0.001
Procedure: (§1) Morphometric study was performed to measure the implants area and cellular density. Immunocytochemistry with Ki-67 (monoclonal IgG1 DAKO Corp., Denmark) antibody was performed in order to evaluate the proliferative activity of the implants. The histopathological and subcellular ultrastructural changes were detected using an optical microscope (OM), transmission electronic microscope (TEM) and histochemical staining. Optical microscopy (OM), transmission electron microscopy (TEM) and morphometry were performed to ascertain the presence of endometrial glands and stroma and study subcellular ultrastructural changes, area of the implants and cellular density.
An immunocyto chemistry study using the Ki-67 antibody (i.e. analysing the degree of cellular proliferation employing antibodies against Ki-67) was used to evaluate the proliferative activity of the implants using methods known in the art.

Ang-1 = experiment: TaqMan Real-time PCR gene expression in implants: Ang-1; format: in vivo, mice; conditions: for Ang-1 relative expression: vehicle 1.1 ± 0.2, Mean ± SD
From the text: (§2) TaqMan Real-time PCR and 2^−ΔΔCt methods were used to analyze the gene expression profiles of three different markers that promote angiogenesis (VEGF, VEGFR-2, Notch-4); Angiopoietin-1 (Ang-1), an antiangiogenesis marker which promotes the enlargement of existing vessels and resistance to leakage; and Wnt-1.
(§3) TaqMan Real-time PCR and 2^−ΔΔCt methods were used to analyze the gene expression profiles of three different markers that promote angiogenesis (VEGF, VEGFR-2, Notch-4); Angiopoietin-1 (Ang-1), an antiangiogenesis marker which promotes the enlargement of existing vessels and resistance to leakage; and Wnt-1. The housekeeping 18S rRNA was used to normalize the target gene Ct values. The Ct value in each group was expressed relative to the control group Ct values (calibrator), to calculate the relative expression by the 2^−ΔΔCt method. cDNA obtained from sarcoma 180 tumor cells (S-180) and human umbilical vein endothelial cells (HUVEC) was used as negative and positive control, respectively, for the VEGF and VEGFR-2 gene expression. Spleen was used as positive control for Ang-1 and Wnt-1, and lung was employed as a Notch-4 positive control.

Wnt-1 = experiment: TaqMan Real-time PCR gene expression in implants: Wnt-1; format: in vivo, mice; conditions: for Wnt-1 relative expression: vehicle 1.0 ± 0.1, Mean ± SD
From the text: as §2, §3

VEGF = experiment: TaqMan Real-time PCR gene expression in implants: VEGF; format: in vivo, mice; conditions: for VEGF relative expression: vehicle 1.2 ± 0.3, Mean ± SD
From the text: as §2, §3

endometriotic lesions [2] = experiment: Nude mouse endometriosis model: active lesions, histology (OM, TEM) and morphometry; format: in vivo, mice; conditions: for percentage of active lesions: two weeks, control 89.6±5.7%, p=0.0169, mean ± SEM
Procedure: An experimental animal endometriosis model was developed in nude mice by inserting human endometrium fragments. Female mice (Hsd: Athimic Nude-nu, Harlan Ibérica S. L, Barcelona, Spain) were individually housed in autoclaved cages and bedding, in laminar flow filtered hoods. The animal room was maintained at 26 C with a 12-h light, 12-h dark cycle, and mice were fed ad libitum with autoclaved laboratory rodent chow and acidified water. All handling was performed in laminar flow filtered hoods. A mixture of ketamine/medetomidine (75 μg/g ketamine and 1 μg/g medetomidine) (Ketolar®, Parke-Davis, España; Domtor®, Pfizer, Spain) i.p injected, was used to anesthetize mice before invasive procedures and atipamezole (Antisedan®, SmithKline Beecham, Spain) 1 μg/g i.p injected, to reverse the anesthesia effects, was used after invasive procedures, using sterile instruments.
At the age of 5 weeks, sterile 60-d release capsules containing 18 mg 17β-estradiol (Innovative Research of America, Sarasota, Fla.) were placed sc in the neck of each animal. According to the manufacturer's information, capsules provide continuous release of hormone at serum concentrations of 150-250 pmol/liter, in the range of physiological levels in mice during the estrous cycle. This stable physiological level of estrogen promotes the growth of transplanted human endometrium and avoids intermouse differences related to various stages of the estrous cycle.
Four days after insertion of the estrogen pellet, an entrance was made to the peritoneal cavity in the midline in the lower abdomen to insert fresh human endometrium from ovum pick-up donors. These fragments were stuck by glue (Vetabond®, 3M Animal Care products, USA) to the peritoneum. This protocol allowed to mimic the pathologic situation of retrograde menstruation that occur in women with endometriosis.
as §1

VEGFR-2 (KDR) = experiment: TaqMan Real-time PCR gene expression in implants: VEGFR-2 (KDR); format: in vivo, mice; conditions: for VEGFR-2 (KDR) relative expression: vehicle 1.0 ± 0.1, Mean ± SD
From the text: as §2, §3

[3] = test system: blood vessels in endometriotic lesions; experiment: Immunofluorescence (vWF/α-SMA) of new and mature blood vessels in the implants; format: in vivo, mice; conditions: low and high dose groups vs control
Procedure: The anti-angiogenic effects of the dopamine agonists were assessed by immunofluorescence, the antibodies used in confocal microscopy raised against Von Willebrand factor (vWF monoclonal IgG1, DAKO Corp., Denmark) present in endothelial cells and vascular smooth muscle cells (monoclonal IgG2 α-SMA-FITC conjugated de Sigma, St Louis, USA). Blood vessel which are not of new formation, are rounded by a smooth muscle layer which confers maturity to them. Identification of endothelial cells was made employing vWF, whereas mature vessels were identified by α-SMA positive staining. Thus, vWF+/αSMA− blood vessels were considered new or immature, while vWF+/αSMA+ vessels were classified as old or mature blood vessels.
The angiogenic status of the lesions was initially analyzed using immunofluorescence employing antibodies to identify new (vWF+/αSMA−) and old vessels (vWF+/αSMA+) and confocal microscopy (Leica Confocal Software). Immunofluorescence employing antibodies raised against the Von Willebrand factor (vWF) present in endothelial cells and vascular smooth muscle cells (α-SMA) can be used to test the antiangiogenic action Cb2. Blood vessel which are not of new formation, are rounded by a smooth muscle layer which confers maturity to them. Identification of endothelial cells was made employing vWF, whereas mature vessels were identified by α-SMA positive staining. […]

[4] = mouse, in vivo
From the text: (§4) Three weeks after implantation the animals were split into three groups. […] Two weeks after treatment the animals were sacrificed and the endometriotic lesions sampled and analysed as set out below.

Notch-4 = experiment: TaqMan Real-time PCR gene expression in implants: Notch-4; format: in vivo, mice; conditions: for Notch-4 relative expression: vehicle 1.0 ± 0.1, Mean ± SD
From the text: as §2, §3

[5] = Toxicity in the nude mouse endometriosis study; conditions: 0.05 and 0.1 mg/kg/day oral, two weeks
From the text: as §4

[6] = low and high dose groups, p <0.05

C=CCN1C[C@H](C(=O)N(CCCN(C)C)C(=O)NCC)C[C@@H]2c3cccc4[nH]cc(c34)C[C@H]21 [cabergoline]
proliferation (Proliferation Index, Ki-67 positive cells) (endometriotic lesions [1]): decrease in proliferation
Ang-1 relative expression (Ang-1; HIGH DOSE (0.1 mg/kg/day)): 3.7 ± 0.6
Ang-1 relative expression (Ang-1; LOW DOSE (0.05 mg/kg/day)): 3.2 ± 0.6
Expression of Ang-1 in treated groups vs vehicle (Ang-1; [6]): Upregulated
Wnt-1 relative expression (Wnt-1; HIGH DOSE (0.1 mg/kg/day)): 3.3 ± 0.6
Wnt-1 relative expression (Wnt-1; LOW DOSE (0.05 mg/kg/day)): 3.4 ± 0.2
Expression of Wnt-1 in treated groups vs vehicle (Wnt-1; low and high dose groups, p =0.07): Upregulated
VEGF relative expression (VEGF; HIGH DOSE (0.1 mg/kg/day)): 0.4 ± 0.1
VEGF relative expression (VEGF; LOW DOSE (0.05 mg/kg/day)): 0.5 ± 0.2
VEGF expression in endometrial implants (VEGF; increasing doses (control, 0.05, 0.1 mg/kg/day), FIG. 6a): trend towards decreased VEGF expression
Expression of VEGF in treated groups vs vehicle (VEGF; [6]): Downregulated
ratio glands/stroma (morphometry) (endometriotic lesions [2]; both low (0.05 mg/kg/day) and high (0.1 mg/kg/day) doses vs controls, p<0.05): more stroma and less glands than the controls
cellular density (morphometry) (endometriotic lesions [2]; control, low and high dose groups): no statistical difference among groups
histology of treated lesions (OM and TEM) (endometriotic lesions [2]; high and low dose): a lax stroma, with lost cellularity and organization
percentage of active lesions (endometriotic lesions [2]; high dose 0.1 mg/kg/day oral): 60.4±8.4%
percentage of active lesions (endometriotic lesions [2]; low dose 0.05 mg/kg/day oral): 58.6±9.7%
VEGFR-2 (KDR) relative expression (VEGFR-2 (KDR); HIGH DOSE (0.1 mg/kg/day)): 0.3 ± 0.1
VEGFR-2 (KDR) relative expression (VEGFR-2 (KDR); LOW DOSE (0.05 mg/kg/day)): 0.4 ± 0.1
Expression of VEGFR-2 (KDR) in treated groups vs vehicle (VEGFR-2 (KDR); [6]): Downregulated
new blood vessel formation (angiogenesis) [3]: significantly reduced new blood vessel formation
body weight of the mice in the different treatment groups [4]: not significantly different
Notch-4 relative expression (Notch-4; HIGH DOSE (0.1 mg/kg/day)): 0.4 ± 0.1
Notch-4 relative expression (Notch-4; LOW DOSE (0.05 mg/kg/day)): 0.5 ± 0.1
Expression of Notch-4 in treated groups vs vehicle (Notch-4; [6]): Downregulated
mortality following administration [5]: No mice in the study died
